Laboratory results published in PubChem BioAssay AID248 (DTP/NCI, 2004).
Several values for one entry are separate records, joined by “and”; a condition that tells them apart may be missing. Identical values can stand only once. Toxic doses and inconclusive results are not listed. Cut-off read from the data, not from the text of the source: active = T/C of 150% or more; inactive = T/C below 125%.

Tested on: L1210 leukemia ip in BDF1 mice, survival T/C
Test: NCI In Vivo Anticancer Drug Screen. Data for tumor model L1210 Leukemia (intraperitoneal) in B6D2F1 (BDF1) mice
Conditions: endpoint: mean survival time, higher = longer survival
Procedure, shortened: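 In this screen, tumor-bearing mice given compound are compared to those given vehicle, and their survival values are reported as a treated-to-control quotient.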

[1] = dose: 100.0 mg/kg/injection, schedule: Q01DX009 (ip), vehicle: saline with Tween-80
[2] = dose: 200.0 mg/kg/injection, schedule: Q01DX009 (ip), vehicle: saline with Tween-80
[3] = dose: 100.0 mg/kg/injection, schedule: Q01DX001 (ip), vehicle: saline

Measured: T/C

CCC1CC2c3cc(OC)c(OC)cc3CCN2CC1(O)Cc1nccc2c1CCCC2 (centres undefined)
inactive: dose: 100.0 mg/kg/injection, schedule: Q01DX001 (ip), vehicle: carboxymethylcellulose (CMC) 104 % of control | dose: 200.0 mg/kg/injection, schedule: Q01DX001 (ip), vehicle: carboxymethylcellulose (CMC) 103 % of control | dose: 400.0 mg/kg/injection, schedule: Q01DX001 (ip), vehicle: carboxymethylcellulose (CMC) 95 % of control

CCOC(=O)CC(=O)Cc1cccc([N+](=O)[O-])c1
inactive: dose: 100.0 mg/kg/injection, schedule: Q01DX009 (ip), vehicle: Klucel (hydroxypropylcellulose) (HPC) 91 % of control | dose: 100.0 mg/kg/injection, schedule: Q04DX003 (ip), vehicle: Klucel (hydroxypropylcellulose) (HPC) 100 % of control | dose: 200.0 mg/kg/injection, schedule: Q01DX009 (ip), vehicle: Klucel (hydroxypropylcellulose) (HPC) 88 % of control | dose: 200.0 mg/kg/injection, schedule: Q04DX003 (ip), vehicle: Klucel (hydroxypropylcellulose) (HPC) 107 % of control | dose: 400.0 mg/kg/injection, schedule: Q04DX003 (ip), vehicle: Klucel (hydroxypropylcellulose) (HPC) 107 % of control

CCN1C(=O)CN(CCN2CC(=O)N(c3ccccc3)C2=S)C1=S
inactive: dose: 50.0 mg/kg/injection, schedule: Q01DX009 (ip), vehicle: saline with Tween-80 94 % of control | [1] 102 % of control | [2] 90 % of control

CN=C1CC2CCC(C2)C1(O)c1ccccc1 (centres undefined)
inactive: [3] 101 % of control

CC(=O)c1sc2sc(C(C)=O)c(NC(=S)Nc3cccc(C(F)(F)F)c3)c2c1NC(=S)Nc1cccc(C(F)(F)F)c1
inactive: dose: 50.0 mg/kg/injection, schedule: Q04DX002 (ip), vehicle: saline with Tween-80 98 % of control and 99 % of control | dose: 100.0 mg/kg/injection, schedule: Q01DX001 (ip), vehicle: saline with Tween-80 96 % of control | [1] 96 % of control and 89 % of control | dose: 100.0 mg/kg/injection, schedule: Q04DX003 (ip), vehicle: saline with Tween-80 93 % of control | dose: 200.0 mg/kg/injection, schedule: Q01DX001 (ip), vehicle: saline with Tween-80 92 % of control | [2] 101 % of control and 86 % of control | dose: 200.0 mg/kg/injection, schedule: Q04DX003 (ip), vehicle: saline with Tween-80 90 % of control | dose: 400.0 mg/kg/injection, schedule: Q01DX001 (ip), vehicle: saline with Tween-80 100 % of control | dose: 400.0 mg/kg/injection, schedule: Q01DX009 (ip), vehicle: saline with Tween-80 96 % of control and 91 % of control

Oc1cccc(NC(=S)Nc2ccccc2)c1
inactive: dose: 50.0 mg/kg/injection, schedule: Q01DX001 (ip), vehicle: saline 100 % of control | [3] 94 % of control | dose: 200.0 mg/kg/injection, schedule: Q01DX001 (ip), vehicle: saline 97 % of control | dose: 400.0 mg/kg/injection, schedule: Q01DX001 (ip), vehicle: saline 97 % of control

COC(=O)c1cn(/C=C/c2ccccc2)cn1
inactive: dose: 87.5 mg/kg/injection, schedule: Q04DX003 (ip), vehicle: Klucel (hydroxypropylcellulose) (HPC) 94 % of control | dose: 175.0 mg/kg/injection, schedule: Q04DX003 (ip), vehicle: Klucel (hydroxypropylcellulose) (HPC) 89 % of control | dose: 350.0 mg/kg/injection, schedule: Q04DX003 (ip), vehicle: Klucel (hydroxypropylcellulose) (HPC) 97 % of control

Cc1cc2c(cc1C)N(C(=O)CN1CCOCC1)CC(=O)N2
inactive: dose: 50.0 mg/kg/injection, schedule: Q01DX009 (ip), vehicle: acetone 95 % of control | dose: 100.0 mg/kg/injection, schedule: Q01DX009 (ip), vehicle: acetone 88 % of control | dose: 100.0 mg/kg/injection, schedule: Q04DX003 (ip), vehicle: acetone 98 % of control | dose: 200.0 mg/kg/injection, schedule: Q01DX009 (ip), vehicle: acetone 95 % of control | dose: 200.0 mg/kg/injection, schedule: Q04DX003 (ip), vehicle: acetone 97 % of control | dose: 400.0 mg/kg/injection, schedule: Q04DX003 (ip), vehicle: acetone 92 % of control

CN(C)N=Nc1cn(C2OC(CO)C(O)C2O)c(=O)[nH]c1=O (centres undefined)
inactive: dose: 100.0 mg/kg/injection, schedule: Q01DX009 (ip), vehicle: saline 111 % of control | dose: 200.0 mg/kg/injection, schedule: Q01DX009 (ip), vehicle: saline 120 % of control

Cc1ccc(C=C2c3ccccc3-c3ccccc32)cc1
inactive: dose: 12.5 mg/kg/injection, schedule: Q04DX002 (ip), vehicle: gum acacia 120 % of control | dose: 25.0 mg/kg/injection, schedule: Q04DX002 (ip), vehicle: gum acacia 88 % of control | dose: 50.0 mg/kg/injection, schedule: Q04DX002 (ip), vehicle: gum acacia 98 % of control
